Read-outs that look alike come from different tables or passages of the source.
Test system: zebrafish embryos
Assay type: in vivo
Settings: for Mild % / Mild dorsalization, number of embryos / Moderate % / Moderate dorsalization, number of embryos / Normal % / Normal, number of embryos / Severe % / Severe dorsalization, number of embryos / % Mild / % Moderate-Severe / Mild, number of embryos / Moderate-Severe, number of embryos / Total % Dorsalized: scored at 48 hpf
[1] = 10 μM, continuous exposure from 2 hpf
[2] = 10 μM, continuous exposure from 4 hpf
[3] = 10 μM, continuous exposure from 6 hpf
[4] = 10 μM, continuous exposure from 8 hpf
[5] = 10 μM, continuous exposure from 10 hpf
[6] = 10 μM, interval exposure 2-4 hpf
[7] = 10 μM, interval exposure 2-6 hpf
[8] = 10 μM, interval exposure 2-8 hpf
[9] = 10 μM, interval exposure 4-8 hpf
[10] = 10 μM, interval exposure 6-8 hpf
[11] = dorsomorphin 10 μM, treatment at 3 hpf

c1cc(-c2cnn3cc(-c4ccc(OCCN5CCCCC5)cc4)cnc23)ccn1 [Compound C/Dorsomorphin]
toxicity (10 μM): No toxicity was observed
Mild % [1]: 0%
Mild dorsalization, number of embryos [1]: 0
Moderate % [1]: 0%
Moderate dorsalization, number of embryos [1]: 0
Normal % [1]: 0%
Normal, number of embryos [1]: 0
Severe % [1]: 100%
Severe dorsalization, number of embryos [1]: 20
Mild % [2]: 0%
Mild dorsalization, number of embryos [2]: 0
Moderate % [2]: 100%
Moderate dorsalization, number of embryos [2]: 19
Normal % [2]: 0%
Normal, number of embryos [2]: 0
Severe % [2]: 0%
Severe dorsalization, number of embryos [2]: 0
Mild % [3]: 22%
Mild dorsalization, number of embryos [3]: 4
Moderate % [3]: 78%
Moderate dorsalization, number of embryos [3]: 14
Normal % [3]: 0%
Normal, number of embryos [3]: 0
Severe % [3]: 0%
Severe dorsalization, number of embryos [3]: 0
Mild % [4]: 85%
Mild dorsalization, number of embryos [4]: 17
Moderate dorsalization, number of embryos [4]: 0
Normal, number of embryos [4]: 3
Severe % [4]: 0%
Severe dorsalization, number of embryos [4]: 0
Mild % [5]: 0%
Mild dorsalization, number of embryos [5]: 0
Moderate % [5]: 0%
Moderate dorsalization, number of embryos [5]: 0
Normal % [5]: 100%
Normal, number of embryos [5]: 20
Severe % [5]: 0%
Severe dorsalization, number of embryos [5]: 0
dorsalization phenotype (10 μM, continuous from 2 hpf): severe dorsalization with high penetrance
dorsalization phenotype (10 μM, exposure from 4-8 and 6-8 hpf): mild to moderate dorsalization
Mild % [6]: 10%
Mild dorsalization, number of embryos [6]: 2
Moderate % [6]: 90%
Moderate dorsalization, number of embryos [6]: 18
Normal % [6]: 0%
Normal, number of embryos [6]: 0
Severe dorsalization, number of embryos [6]: 0
Mild % [7]: 17%
Mild dorsalization, number of embryos [7]: 3
Moderate % [7]: 44%
Moderate dorsalization, number of embryos [7]: 8
Normal % [7]: 0%
Normal, number of embryos [7]: 0
Severe % [7]: 39%
Severe dorsalization, number of embryos [7]: 7
Mild % [8]: 0%
Mild dorsalization, number of embryos [8]: 0
Moderate % [8]: 0%
Moderate dorsalization, number of embryos [8]: 0
Normal % [8]: 0%
Normal, number of embryos [8]: 0
Severe % [8]: 100%
Severe dorsalization, number of embryos [8]: 20
Mild % [9]: 65%
Mild dorsalization, number of embryos [9]: 15
Moderate % [9]: 35%
Normal % [9]: 0%
Normal, number of embryos [9]: 0
Severe % [9]: 0%
Severe dorsalization, number of embryos [9]: 0
Mild % [10]: 95%
Mild dorsalization, number of embryos [10]: 19
Moderate % [10]: 5%
Moderate dorsalization, number of embryos [10]: 1
Normal % [10]: 0%
Normal, number of embryos [10]: 0
Severe % [10]: 0%
Severe dorsalization, number of embryos [10]: 0
dorsalization phenotype (10 μM, treated at 2-4 hpf): severe dorsalization defects
dorsalization phenotype (10 μM, treated at 6-8 hpf): mild dorsalization
dorsalization phenotype (10 μM, treatment at 10 hpf and beyond): did not induce dorsalization
nonspecific toxicity (5-20 uM): absence of other nonspecific toxicity
dorsalization phenotype (5 to 10 μM from 3 hpf): progressively more severe dorsalization in a progressively higher percentage of embryos
dorsalization phenotype (10 (unit not given) from 3 hpf): moderate or severe dorsalization in nearly all embryos examined
% Mild (DM 0.2 μM from 3 hpf): 0%
% Moderate-Severe (DM 0.2 μM from 3 hpf): 0%
Mild, number of embryos (DM 0.2 μM from 3 hpf): 0
Moderate-Severe, number of embryos (DM 0.2 μM from 3 hpf): 0
Normal, number of embryos (DM 0.2 μM from 3 hpf): 60
Total % Dorsalized (DM 0.2 μM from 3 hpf): 0%
% Mild (DM 0.5 μM from 3 hpf): 0%
% Moderate-Severe (DM 0.5 μM from 3 hpf): 0%
Mild, number of embryos (DM 0.5 μM from 3 hpf): 0
Moderate-Severe, number of embryos (DM 0.5 μM from 3 hpf): 0
Normal, number of embryos (DM 0.5 μM from 3 hpf): 59
Total % Dorsalized (DM 0.5 μM from 3 hpf): 0%
% Mild (DM 1 μM from 3 hpf): 0%
% Moderate-Severe (DM 1 μM from 3 hpf): 0%
Mild, number of embryos (DM 1 μM from 3 hpf): 0
Moderate-Severe, number of embryos (DM 1 μM from 3 hpf): 0
Normal, number of embryos (DM 1 μM from 3 hpf): 60
Total % Dorsalized (DM 1 μM from 3 hpf): 0%
% Mild (DM 2 μM from 3 hpf): 0%
% Moderate-Severe (DM 2 μM from 3 hpf): 0%
Mild, number of embryos (DM 2 μM from 3 hpf): 0
Normal, number of embryos (DM 2 μM from 3 hpf): 60
Total % Dorsalized (DM 2 μM from 3 hpf): 0%
% Mild (DM 5 μM from 3 hpf): 19%
% Moderate-Severe (DM 5 μM from 3 hpf): 0%
Mild, number of embryos (DM 5 μM from 3 hpf): 11
Moderate-Severe, number of embryos (DM 5 μM from 3 hpf): 0
Normal, number of embryos (DM 5 μM from 3 hpf): 48
Total % Dorsalized (DM 5 μM from 3 hpf): 19%
% Mild (DM 7.5 μM from 3 hpf): 58%
% Moderate-Severe (DM 7.5 μM from 3 hpf): 42%
Mild, number of embryos (DM 7.5 μM from 3 hpf): 35
Moderate-Severe, number of embryos (DM 7.5 μM from 3 hpf): 25
Normal, number of embryos (DM 7.5 μM from 3 hpf): 0
Total % Dorsalized (DM 7.5 μM from 3 hpf): 100%
% Mild (DM 10 μM from 3 hpf): 3%
% Moderate-Severe (DM 10 μM from 3 hpf): 98%
Mild, number of embryos (DM 10 μM from 3 hpf): 1
Moderate-Severe, number of embryos (DM 10 μM from 3 hpf): 39
Normal, number of embryos (DM 10 μM from 3 hpf): 0
Total % Dorsalized (DM 10 μM from 3 hpf): 100%
% Dorsalized [11]: 100%
Dorsalized, number of embryos [11]: 26
Early lethality, number of embryos [11]: 3
Total survivors [11]: 26
dorsalization and toxicity (same conditions as C75 (3 hpf)): induced dorsalization with high penetrance and minimal toxicity
dorsalization phenotype (≦2 μM from 3 hpf): did not elicit dorsalization
cyclopia (phenotype of defective TGF-β signaling) (≧5 μM at ≦8 hpf): did not result in cyclopia
